Measured values taken from ChEMBL document CHEMBL1201862, “PubChem BioAssay data set” (2004).
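Grown in 96-well plates, cells were treated for 48 hours with each compound at five concentrations. Insufficient inhibition: endpoint recorded as highest concentration tested. GI50 = concentration required for 50% inhibition of growth.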 Calls of active or inactive are those of the source. No stated cut-off is given here; in the data, active = GI50 up to about 1.1 µM and inactive = higher.

Key:
Test in all cases: growth of human tumour cells (NCI), 48 h
[1] = system: SF-268
[2] = system: HT-29
[3] = system: Malme-3M
[4] = system: HCT-15
[5] = system: OVCAR-5
[6] = system: MDA-N
[7] = system: MCF7
[8] = system: CCRF-CEM
[9] = system: HCT-116
[10] = system: OVCAR-8
[11] = system: SK-OV-3
[12] = system: TK-10
[13] = system: RPMI-8226
[14] = system: A498
[15] = system: NCI-H226
[16] = system: U-251
[17] = system: SF-295
[18] = system: SK-MEL-28
[19] = system: COLO 205
[20] = system: RXF 393

SMILES	GI50 [1]	GI50 [2]	GI50 [3]	GI50 [4]	GI50 [5]	GI50 [6]	GI50 [7]	GI50 [8]	GI50 [9]	GI50 [10]	GI50 [11]	GI50 [12]	GI50 [13]	GI50 [14]	GI50 [15]	GI50 [16]	GI50 [17]	GI50 [18]	GI50 [19]	GI50 [20]
c1ccc(-c2c[nH]c(SC(c3ccccc3)c3ccccc3)n2)cc1	43.8 µM (inactive)	10.9 µM (inactive)	15 µM (inactive)	13.3 µM	55.7 µM (inactive)	20.7 µM (inactive)	20.3 µM (inactive)	19.3 µM (inactive)	12.7 µM (inactive)	19.6 µM (inactive)	46.9 µM (inactive)	21.1 µM (inactive)	10.8 µM (inactive)	24.7 µM (inactive)	17.3 µM (inactive)	15 µM (inactive)	15.2 µM (inactive)	33.7 µM (inactive)	13 µM (inactive)	15.8 µM (inactive)
Cc1ccc2c(c1)C(=O)C1(C2)Cc2c(C)cccc2C1=O (stereo not given)	> 100 µM (inactive)	> 100 µM (inactive)	> 100 µM (inactive)	> 100 µM	> 100 µM (inactive)	> 100 µM (inactive)	> 100 µM (inactive)	> 100 µM (inactive)	> 100 µM (inactive)	> 100 µM (inactive)	> 100 µM (inactive)	> 100 µM (inactive)	> 100 µM (inactive)	> 100 µM (inactive)	> 100 µM (inactive)	> 100 µM (inactive)	> 100 µM (inactive)	> 100 µM (inactive)	> 100 µM (inactive)	> 100 µM (inactive)
CCC(=O)C(CCN1CCC2(CCCc3ccccc32)CC1)(c1ccccc1)c1ccccc1	5.92 µM (inactive)	0.993 µM (active)	1.91 µM (inactive)	2.55 µM	3.74 µM (inactive)	3.96 µM (inactive)	2.86 µM (inactive)	1.78 µM (inactive)	1.42 µM (inactive)	3.66 µM (inactive)	3.19 µM (inactive)	3.77 µM (inactive)	0.622 µM (active)	1.98 µM (inactive)	2.05 µM (inactive)	2.62 µM (inactive)	2.02 µM (inactive)	4.65 µM (inactive)	1.34 µM (inactive)	2 µM (inactive)
OCCSCc1cc2c(O)c(c1)Cc1cc(CSCCO)cc(c1O)Cc1cc(CSCCO)cc(c1O)Cc1cc(CSCCO)cc(c1O)C2	2.88 µM (inactive)	2.88 µM (inactive)	2.04 µM (inactive)	8.81 µM	5.6 µM (inactive)	3.42 µM (inactive)	3.91 µM (inactive)	5.35 µM (inactive)	4.02 µM (inactive)	5.09 µM (inactive)	8.47 µM (inactive)	4.8 µM (inactive)	3.95 µM (inactive)	6.15 µM (inactive)	10.4 µM (inactive)	4.48 µM (inactive)	5.02 µM (inactive)	3.56 µM (inactive)	2.68 µM (inactive)	4.58 µM (inactive)
COc1cc2cc(C(=O)N3CC(CCl)c4c3cc(N)c3ccccc43)[nH]c2cc1OCCN(C)C (stereo not given)	< 0.005 µM (active)	0.5 µM (active)	0.0053 µM (active)	0.00553 µM	0.00713 µM (active)	< 0.005 µM (active)	< 0.005 µM (active)	< 0.005 µM (active)	< 0.005 µM (active)	< 0.005 µM (active)	0.0105 µM (active)	0.00522 µM (active)	< 0.005 µM (active)	0.00546 µM (active)	0.00528 µM (active)	< 0.005 µM (active)	< 0.005 µM (active)	0.00705 µM (active)	< 0.005 µM (active)	< 0.005 µM (active)
Clc1ccc(CSCc2ccc(Cl)cc2Cl)c(Cl)c1	71 µM (inactive)	29.9 µM (inactive)	28.2 µM (inactive)	32.2 µM	> 100 µM (inactive)	38.8 µM (inactive)	27.7 µM (inactive)	22.2 µM (inactive)	41.4 µM (inactive)	> 100 µM (inactive)	> 100 µM (inactive)	> 100 µM (inactive)	28.1 µM (inactive)	40.2 µM (inactive)	> 100 µM (inactive)	54 µM (inactive)	37.3 µM (inactive)	79.6 µM (inactive)	65.8 µM (inactive)	20 µM (inactive)
